Results from patent US11172673B2, “Platelet storage methods and compositions for same” (Children's Hospital Medical Center, priority 2014, dated 2021).
“Also recorded” adds a separate entry of the source.

How the values were obtained:
platelets [1] = test: Collagen induced platelet aggregation; format: cell-based, human; settings: for Reversibility of aggregation block upon a wash of the inhibitor treated platelets: up to 30 μM Casin, FIG. 3D lower panel
Procedure: FIG. 3D. Collagen induced aggregation is blocked by 10 μM Casin (upper panel) and is reversible (up to 30 μM Casin) upon a wash of the inhibitor treated platelets (lower panel).
FIG. 4D. Collagen induced aggregation is blocked by NSC23766 in a dose-dependent fashion.
FIG. 4E. Inhibition of collagen induced platelet aggregation by NSC23766 (50 μM) is reversible upon a wash of the inhibitor treated platelets.
(§1) FIG. 5D. Collagen induced aggregation is inhibited by G04 (upper panel). Similar to collagen, thrombin induced aggregation (data not shown) is blocked by G04 in a dose-dependent fashion (upper panel) and is reversible upon a wash of the inhibitor treated platelets (lower panel).
Applicant has tested the ability of three chemical inhibitors, CASIN, NSC23766 and G04, targeting Cdc42, Rac1 and RhoA, respectively (FIG. 2), to inhibit the activity of the GTPases and the consequent cytoskeleton-dependent functions of human platelets. A rationally developed inhibitor of Cdc42 with activity on activation by guanine nucleotide exchange factors is CASIN (29, Nature Biotech under revision). CASIN was recently discovered by Zheng group as a small molecule that recognizes a pocket domain that specifically blocks the ability of GEF interaction with Cdc42 (FIG. 3A). CASIN is found to suppress of hematopoietic stem cell aging through its specific Cdc42 inhibitory activity (29). In platelets, it inhibits Cdc42 activation (FIG. 3B) and prevents collagen-induced platelet shape changes (FIG. 3C). […]
(§2) Finally, G04/Rhosin was also developed by us as a RhoA GTPase activation site inhibitor that transiently and specifically blocks RhoA activity and RhoA-mediated signaling functions (36, 37). […] Effect by collagen or thrombin is reversible (FIG. 5D, lower).

platelets [2] = test: Platelet actin filopodia structure / shape change, rhodamine-phalloidin staining; format: cell-based, human; settings: Casin 10 μM, platelets adhered to coated collagen surface, FIG. 3C
Procedure: FIG. 3C. Fibrinogen mediated platelet actin filopedia structure is blocked by Casin (10 μM). Rhodamine conjugated phalloidin-staining of platelets adhered to coated collagen surface.
(§3) Applicant has tested the ability of three chemical inhibitors, CASIN, NSC23766 and G04, targeting Cdc42, Rac1 and RhoA, respectively (FIG. 2), to inhibit the activity of the GTPases and the consequent cytoskeleton-dependent functions of human platelets. A rationally developed inhibitor of Cdc42 with activity on activation by guanine nucleotide exchange factors is CASIN (29, Nature Biotech under revision). CASIN was recently discovered by Zheng group as a small molecule that recognizes a pocket domain that specifically blocks the ability of GEF interaction with Cdc42 (FIG. 3A). CASIN is found to suppress of hematopoietic stem cell aging through its specific Cdc42 inhibitory activity (29). In platelets, it inhibits Cdc42 activation (FIG. 3B) and prevents collagen-induced platelet shape changes (FIG. 3C).

[3] = system: C57Bl/6 murine carboxyfluorescein-labeled platelets; test: Recovery and survival of refrigerated platelets after infusion in congenic mice; format: in vivo; settings: for Platelet 24-hour recovery in vivo / Platelet survival in vivo: refrigerated platelets stored at 0° C.; for Platelet 24-hour recovery in vivo: FIG. 6B; for Platelet survival in vivo: FIG. 6C
Procedure: FIG. 6C-FIG. 6D. Platelet recovery at different time points. Donor platelets were stored at room temperature (squares) or pretreated with a mixed Rho GTPase inhibitors (50 μM NSC23766, 10 μM CASIN and/or 75 μM G04) or no drug (control). Data are presented as mean SD. *p<0.01 (Anova test with Bonferroni correction, between refrigerated with no inhibitor and refrigerated with triple inhibitor combination).
FIG. 7 depicts effects of Rho GTPase inhibitor combinations on platelet survival upon transfusion. Platelet recovery at different time points is shown. Donor platelets were stored at room temp (squares) or pretreated with a mixed Rho GPase inhibitors (50 uM NSC23766, 10 uM CASIN and/or 75 uM G04) or no drug (Ctrl). Data are presented as mean±SD. *p<0.01 (Anova test with Bonferroni correction, between refrigerated with no inhibitor and refrigerated with triple inhibitor combination).
A combination of CASIN (10 μM), G04 (75 μM) and/or NSC23766 were used in C57Bl/6 murine carboxyfluorescein-labeled platelets incubated at 0° C. or 5° C. for 3.5 hours. After re-warming, platelets were infused in 5 congenic mice (per group) and compared with control (room temperature stored) and refrigerated, untreated platelet group (FIG. 7). […] In a second experiment focused on the specific combinations with more activity to reverse the survival impairment associated with the use of Rho GTPase inhibitors, we analyzed the 24-hour recovery (%) and survival (hours) of platelets that had been stored in presence of several combinations of drugs (FIG. 6A).

hematopoietic stem cell = settings: cited from earlier work
Cdc42 = target: T1, Cdc42 (Homo sapiens, UniProt P60953); test: Cdc42 activation in platelets, GST-PAK pulldown assay; format: cell-based; settings: Casin 10 μM, FIG. 3B
T1 construct: endogenous in cells; host or cells: human platelets
T1 sequence (P60953 whole entry): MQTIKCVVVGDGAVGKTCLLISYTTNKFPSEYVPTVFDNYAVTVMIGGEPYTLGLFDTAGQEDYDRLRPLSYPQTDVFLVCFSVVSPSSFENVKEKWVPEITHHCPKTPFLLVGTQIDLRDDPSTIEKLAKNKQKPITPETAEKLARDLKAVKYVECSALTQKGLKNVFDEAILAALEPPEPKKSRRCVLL
Procedure: FIG. 3B. Collagen-induced Cdc42 activation is inhibited by Casin (10 μM) in a GST-PAK pulldown assay.
as §3

platelets [4] = test: Platelet actin lamellopodia structure / spreading, rhodamine-phalloidin staining; format: cell-based, human; settings: for Fibrinogen-mediated platelet actin lamellopodia structure: NSC23766 50 μM, FIG. 4C
Procedure: FIG. 4C. Fibrinogen-mediated platelet actin lamellopodia structure is blocked by NSC23 766 (50 μM). Rhodamine conjugated phalloidin-staining of platelets adhered to coated collagen surface.
FIG. 5C. U46629 ([…]/Fibrinogen (3 μM)-mediated platelet actin lamellopodia structure is blocked by G04 (30 μM). Rhodamine conjugated phalloidin-staining of platelets adhered to coated collagen surface.
Similarly, Applicant has identified an inhibitor of Rac, NSC23766 (30-34), with an ability to impair Rac1 activation by multiple activating signals which may be crucial in platelet signaling associated with GpIb/GpX (35). NSC23766 was discovered in a structure-based virtual screening of compounds that fit into a surface groove of Rac 1 known to be critical for guanine nucleotide exchange factor specification (34) (FIG. 4A).
as §2

platelets [5] = test: Thrombin induced platelet aggregation; format: cell-based, human
From the text: as §1, §2

RhoA [6] = target: T2, RhoA (Homo sapiens, UniProt P61586); settings: binding to surface area sandwiching Trp58 of RhoA; cited from earlier work
Target sequence in this assay (P61586 whole entry, species assumed): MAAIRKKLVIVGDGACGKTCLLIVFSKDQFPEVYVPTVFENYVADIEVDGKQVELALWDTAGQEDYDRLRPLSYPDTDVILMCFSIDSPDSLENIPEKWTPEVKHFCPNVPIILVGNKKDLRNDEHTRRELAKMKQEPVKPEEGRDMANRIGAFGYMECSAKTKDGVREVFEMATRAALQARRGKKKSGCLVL

RhoA [7] = target: T2, RhoA; settings: cited from earlier work
Target sequence in this assay (P61586 whole entry, species assumed): as above

RhoA [8] = target: T2, RhoA; test: Collagen-induced RhoA activity in platelets, GST-Rhotekin pulldown assay; format: cell-based; set-up: endogenous in cells; host or cells: human platelets; settings: G04 50 μM, FIG. 5B
Procedure: FIG. 5B. Collagen-induced RhoA activity is inhibited by Go4 (50 μM) in a GST-Rhotekin pulldown assay.
as §2
Target sequence in this assay (P61586 whole entry): as the sequence (P61586 whole entry, species assumed) above

For OCCNC1CCCc2c1[nH]c1ccc(-c3ccccc3)cc21 (stereo not drawn) [CASIN], which Collagen induced aggregation (platelets [1]; 10 μM Casin, FIG. 3D upper panel) is on record?
Its Collagen induced aggregation is “prevention”.

And the Collagen induced aggregation (platelets [1]; 10 μM Casin, FIG. 3D upper panel, listed as Casin)?
Its Collagen induced aggregation is “blocked”.

And the “Reversibility of aggregation block upon a wash of the inhibitor treated platelets” value (platelets [1])?
The value was “can be reversed”.

And the “Reversibility of aggregation block upon a wash of the inhibitor treated platelets” value (platelets [1]; listed as Casin)?
The value was “reversible”.

And the “Platelet actin filopodia structure / collagen-induced platelet shape changes” value (platelets [2])?
Its value is “prevents”.

And the “Platelet actin filopodia structure / collagen-induced platelet shape changes” value (platelets [2]; listed as Casin)?
The value was “blocked”.

What about the “Platelet 24-hour recovery in vivo” value [3] of the same compound?
The value was “did not improve”.

And the “Platelet survival in vivo” value [3]?
Its value is “did not improve”.

What about the “Hematopoietic stem cell aging” value (hematopoietic stem cell) of the same compound?
The value was “suppress”.

What about the “Collagen-induced Cdc42 activation” value (Cdc42) of the same compound?
Its value is “inhibits”.

And the “Collagen-induced Cdc42 activation” value (Cdc42; listed as Casin)?
The value was “inhibited”.

Which “Reversibility of inhibition of collagen induced platelet aggregation upon a wash” value (platelets [1]; NSC23766 50 μM, FIG. 4E) does the source give for CCN(CC)CCCC(C)Nc1nc(C)cc(Nc2ccc3nc(C)cc(N)c3c2)n1 (racemic) [NSC23766] here?
Its value is “reversible”.

And the Collagen induced aggregation (platelets [1]; NSC23766, dose-dependent fashion, FIG. 4D)?
Its Collagen induced aggregation is “reversibly inhibits; also recorded: blocked”.

And the “Reversal of the survival deficiency (storage lesion) induced by refrigerated storage” value ([3]; platelets incubated at 0° C. or 5° C. for 3.5 hours, infused in congenic mice, 50 uM NSC23766, 10 uM CASIN and/or 75 uM G04, FIG. 7)?
Its value is “did not result in significant reversal”.

And the “Fibrinogen-mediated platelet actin lamellopodia structure” value (platelets [4])?
The value was “effectively block”.

And the “Fibrinogen-mediated platelet actin lamellopodia structure” value (platelets [4]; listed as NSC23 766)?
The value was “blocked”.

For N[C@H](Cc1c[nH]c2ccccc12)C(=O)N/N=C/c1ccc2nccnc2c1 [G04], which Collagen induced aggregation (platelets [1]; G04, FIG. 5D upper panel) is on record?
The Collagen induced aggregation was “inhibited”.

What about the “Reversibility of effect on collagen induced aggregation” value (platelets [1]; G04, wash of inhibitor treated platelets, FIG. 5D lower) of the same compound?
The value was “reversible”.

What about the Thrombin induced aggregation (platelets [5]; G04, dose-dependent fashion, data not shown) of the same compound?
The Thrombin induced aggregation was “blocked”.

And the “Reversibility of block of thrombin induced aggregation upon a wash” value (platelets [5]; G04, FIG. 5D lower panel)?
The value was “reversible”.

And the Kd (RhoA [6])?
Its Kd is “submicromolar”.

And the “Platelet 24-hour recovery in vivo” value [3]?
The value was “did not improve”.

What about the “Platelet survival in vivo” value [3] of the same compound?
Its value is “did not improve”.

And the “GEF-catalyzed RhoA activation” value (RhoA [7])?
Its value is “effectively inhibits”.

What about the “Collagen-induced RhoA activity” value (RhoA [8]) of the same compound?
The value was “specifically inhibits”.

And the “Collagen-induced RhoA activity” value (RhoA [8]; listed as Go4)?
The value was “inhibited”.

And the “U46629/Fibrinogen-mediated platelet actin lamellopodia structure (platelet spreading)” value (platelets [4]; G04 30 μM, U46629 10 mM, Fibrinogen 3 μM, FIG. 5C)?
The value was “inhibits; also recorded: blocked”.
